According to PubChem BioAssay (NCI):
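Method: 48-hour compound exposure of cells in 96-well plates, five concentrations, linear interpolation of endpoints. TGI marks complete inhibition of growth.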

Legend:
Assay in all cases: NCI-60 cell line screen, 48 h
[1] = test system: SR leukemia
[2] = test system: A549 NSCLC
[3] = test system: SK-OV-3 ovarian
[4] = test system: HL-60(TB) leukemia
[5] = test system: CAKI-1 renal
[6] = test system: NCI-H23 lung
[7] = test system: HCC-2998 colon
[8] = test system: K-562 leukemia
[9] = test system: KM12 colon
[10] = test system: NCI-H226 lung
[11] = test system: COLO 205 colon
[12] = test system: LOX IMVI melanoma
[13] = test system: U251 CNS
[14] = test system: SK-MEL-5 melanoma
[15] = test system: NCI-H522 lung
[16] = test system: 786-0 renal
[17] = test system: SNB-19 CNS
[18] = test system: UO-31 renal
[19] = test system: OVCAR-4 ovarian

## CCCCCC(=O)Cc1cc(OC)cc2c1C(=O)Oc1cc(O)c(C(=O)O)c(CC(=O)CCCCC)c1O2
[1]
  TGI: > 100 µM
[2]
  TGI: > 100 µM
[3]
  TGI: > 100 µM
[4]
  TGI: > 100 µM
[5]
  TGI: > 100 µM
[6]
  TGI: 37.1 µM
[7]
  TGI: > 100 µM
[8]
  TGI: > 100 µM
[9]
  TGI: > 100 µM
[10]
  TGI: > 100 µM
[11]
  TGI: > 100 µM
[12]
  TGI: > 100 µM
[13]
  TGI: 29.3 µM
[14]
  TGI: > 100 µM
[15]
  TGI: > 100 µM
[16]
  TGI: 37.7 µM

## O=C1/C(=C\c2c(-c3ccccc3)nn(-c3ccccc3)c2O)C(c2ccccc2)=NN1c1ccccc1
[1]
  TGI: 61.4 µM
[2]
  TGI: > 100 µM
[3]
  TGI: > 100 µM
[4]
  TGI: > 100 µM
[5]
  TGI: > 100 µM
[6]
  TGI: > 100 µM
[7]
  TGI: > 100 µM
[17]
  TGI: > 100 µM
[8]
  TGI: > 100 µM
[9]
  TGI: > 100 µM
[10]
  TGI: > 100 µM
[11]
  TGI: > 100 µM
[18]
  TGI: > 100 µM
[19]
  TGI: > 100 µM
[12]
  TGI: > 100 µM
[13]
  TGI: > 100 µM
[16]
  TGI: > 100 µM

## COc1ccc(C2S/C(=C\c3cccc(O)c3)C(=O)N2NC(=O)Cc2ccccc2)cc1 (stereo not drawn)
[1]
  TGI: > 100 µM
[2]
  TGI: > 100 µM
[3]
  TGI: > 100 µM
[4]
  TGI: > 100 µM
[5]
  TGI: > 100 µM
[6]
  TGI: > 100 µM
[8]
  TGI: > 100 µM
[9]
  TGI: > 100 µM
[10]
  TGI: > 100 µM
[11]
  TGI: > 100 µM
[18]
  TGI: > 100 µM
[19]
  TGI: > 100 µM
[12]
  TGI: > 100 µM
[13]
  TGI: > 100 µM
[14]
  TGI: > 100 µM
[15]
  TGI: > 100 µM
[16]
  TGI: > 100 µM

## C=C1CC(C/C=C(\C)CC2CC(=C)C(=O)O2)OC1=O (stereo not drawn)
[1]
  TGI: > 100 µM
[2]
  TGI: > 100 µM
[3]
  TGI: > 100 µM
[4]
  TGI: > 100 µM
[5]
  TGI: > 100 µM
[6]
  TGI: > 100 µM
[7]
  TGI: > 100 µM
[17]
  TGI: > 100 µM
[8]
  TGI: > 100 µM
[9]
  TGI: > 100 µM
[11]
  TGI: > 100 µM
[18]
  TGI: > 100 µM
[19]
  TGI: > 100 µM
[12]
  TGI: > 100 µM
[13]
  TGI: > 100 µM
[14]
  TGI: > 100 µM
[16]
  TGI: > 100 µM

## CO[C@H](c1ccccc1)[C@H](C)N(C)c1ccc2ccccc2c1C1=NC(C)(C)CO1
[1]
  TGI: 50.1 µM
[2]
  TGI: 35.2 µM
[3]
  TGI: 33.3 µM
[4]
  TGI: 61.3 µM
[6]
  TGI: 31 µM
[17]
  TGI: 84.7 µM
[8]
  TGI: 88.5 µM
[9]
  TGI: 40.2 µM
[10]
  TGI: 34.8 µM
[11]
  TGI: 40.9 µM
[18]
  TGI: 27.9 µM
[13]
  TGI: 30.5 µM
[14]
  TGI: > 100 µM
[15]
  TGI: 19.4 µM
[16]
  TGI: 30.1 µM

## N#CC(c1ccccc1)(c1ccccc1)[C@@H](c1ccccc1)[C@H](Cc1ccccc1)NS(=O)(=O)c1ccccc1
[1]
  TGI: > 100 µM
[2]
  TGI: > 100 µM
[3]
  TGI: > 100 µM
[4]
  TGI: > 100 µM
[5]
  TGI: > 100 µM
[6]
  TGI: > 100 µM
[7]
  TGI: > 100 µM
[17]
  TGI: > 100 µM
[8]
  TGI: > 100 µM
[9]
  TGI: > 100 µM
[11]
  TGI: > 100 µM
[18]
  TGI: > 100 µM
[19]
  TGI: > 100 µM
[12]
  TGI: > 100 µM
[13]
  TGI: > 100 µM
[14]
  TGI: > 100 µM
[15]
  TGI: > 100 µM
[16]
  TGI: > 100 µM

## CC1=NN(c2ccccc2)C(=O)C1=C1SCCCS1
[1]
  TGI: 34.5 µM
[2]
  TGI: > 100 µM
[3]
  TGI: > 100 µM
[4]
  TGI: 41.9 µM
[5]
  TGI: 52.1 µM
[6]
  TGI: > 100 µM
[7]
  TGI: > 100 µM
[17]
  TGI: 84.7 µM
[8]
  TGI: 47.6 µM
[9]
  TGI: 66 µM
[10]
  TGI: > 100 µM
[11]
  TGI: 29.3 µM
[18]
  TGI: > 100 µM
[12]
  TGI: 55.8 µM
[13]
  TGI: 37.4 µM
[14]
  TGI: > 100 µM
[15]
  TGI: 37.5 µM
[16]
  TGI: > 100 µM
